Assay results reported in patent publication US10010589B2, “Modified therapeutic agents, stapled peptide lipid conjugates, and compositions thereof” (priority 2013, dated 2018).
Where two headings read alike, the source gives them in different places. *1 amine or outer side, *2 acyl side, *3 side chain or, on linkers, in order; H or OH if unused. Where a SMILES comes first, the peptide text is derived from it. Bridges are numbered along the chain shown (N, C = ends). [ ]: non-standard residue; d: D form. CH2CONH(CH2)4NHCOCH2 = O=C(C[*:1])NCCCCNC(=O)C[*:2]; CH2CONHCH2CH2NHCOCH2 = O=C(C[*:1])NCCNC(=O)C[*:2]; X1 = O=C(c1ccc(C[*:1])cc1)c1ccc(C[*:2])cc1

Assays:
[1] = biological target: T1, human glucagon-like peptide 1 receptor (GLP-1R) (Homo sapiens, UniProt P43220); experiment: cell-based
T1 construct: expressed in transfected cells
Method: (§1) HEK293 cells were infected with lent virus encoding firefly luciferase gene under the control of CRE promoter, as described in the manual (Qiagen, Netherlands) and then were selected using 1 μg/mL puromycin (Life technologies, Carlsbad) for 1 week. The survived cells were named as CRE-HEK293, expanded and then transfected with a G418 selective mammalian expression plasmid encoding human GCGR, GLP-1R, GIPR or GLP-2R. In brief, GCGR, GLP-1R, GIPR, or GLP-2R plasmid was transfected into CRE-HEK293 cells using Lipofectamine 2000 and selected with 400 μg/mL geneticin (Life technologies, Carlsbad, Calif.). Single colony stable cell lines overexpressing both CRE-luciferase and GCGR, GLP-1R, GIPR, or GLP-2R were then established for in vitro activity assays. These four stable cell lines were named as HEK293-GCGR-CRE, HEK293-GLP-1R-CRE, HEK293-GIPR-CRE, and HEK293-GLP-2R-CRE.
(§2) Cells were treated with different peptides in a dose dependent manner. On the next day, 10 μl of Bright-Glo reagent (Promega, Madison, Wis.) were added into each well and firefly luminescence was determined using an Envision multilabel plate reader (PerkinElmer, Waltham, Mass.). EC50 of each peptide was calculated using GraphPad Prism 6 software (GraphPad, San Diego, Calif.).

[2] = biological target: T2, human glucagon receptor (GCGR) (Homo sapiens, UniProt P47871); experiment: GCGR CRE luciferase assay (receptor-mediated cAMP synthesis); assay type: cell-based
T2 construct: expressed in transfected cells
Method: (§3) CREB responsive luciferase stable HEK 293 cell line overexpressing human glucagon receptor (GCGR), glucagon-like peptide 1 receptor (GLP-1R), Glucose-dependent insulinotropic polypeptide receptor (GIPR), or Glucagon-like peptide 2 receptor (GLP-2R) was generated as follows.
as §1
as §2, with “HEK293-GCGR-CRE, HEK293-GLP-1R-CRE, HEK293-GIPR-CRE, and HEK293-GLP-2R-CRE cells were seeded in a white 384-well plate at a density of 5,000 cells per well and cultured for 24 hours. Cells” for “Cells”

[3] = biological target: T3, human Glucose-dependent insulinotropic polypeptide receptor (GIPR) (Homo sapiens, UniProt P48546); experiment: GIPR CRE luciferase assay (receptor-mediated cAMP synthesis); assay type: cell-based
T3 construct: expressed in transfected cells
T3 sequence (P48546 22-466): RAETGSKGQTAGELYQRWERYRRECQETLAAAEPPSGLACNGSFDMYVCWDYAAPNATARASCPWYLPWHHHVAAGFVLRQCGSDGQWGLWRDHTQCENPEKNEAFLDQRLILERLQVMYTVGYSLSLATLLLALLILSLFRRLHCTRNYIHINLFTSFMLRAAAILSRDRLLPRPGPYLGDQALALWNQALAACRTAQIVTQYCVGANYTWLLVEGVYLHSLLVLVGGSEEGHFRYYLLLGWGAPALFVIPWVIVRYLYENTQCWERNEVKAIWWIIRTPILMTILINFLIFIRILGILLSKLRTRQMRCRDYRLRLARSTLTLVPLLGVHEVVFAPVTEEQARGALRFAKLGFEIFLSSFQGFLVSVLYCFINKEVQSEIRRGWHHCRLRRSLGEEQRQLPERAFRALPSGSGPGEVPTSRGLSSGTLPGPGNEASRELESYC
Method: as §3
as §1, with “Single colony stable cell lines overexpressing both CRE-luciferase and GCGR, GLP-1R, GIPR, or GLP-2R were then established for in vitro activity assays. These four stable cell lines were named as HEK293-GCGR-CRE, HEK293-GLP-1R-CRE, HEK293-GIPR-CRE, and HEK293-GLP-2R-CRE.” left out
as §2, with “HEK293-GCGR-CRE, HEK293-GLP-1R-CRE, HEK293-GIPR-CRE, and HEK293-GLP-2R-CRE cells” for “Cells”, “seeded” for “treated with different peptides”, “white 384-well plate at a density of 5,000 cells per well and cultured for 24 hours. […]” for “dose dependent manner.”

[4] = HEK293-GLP-1R-CRE cells, luciferase readout, Table 6, read-out: GLP-1R (EC50)

T2 sequence (P47871 26-477): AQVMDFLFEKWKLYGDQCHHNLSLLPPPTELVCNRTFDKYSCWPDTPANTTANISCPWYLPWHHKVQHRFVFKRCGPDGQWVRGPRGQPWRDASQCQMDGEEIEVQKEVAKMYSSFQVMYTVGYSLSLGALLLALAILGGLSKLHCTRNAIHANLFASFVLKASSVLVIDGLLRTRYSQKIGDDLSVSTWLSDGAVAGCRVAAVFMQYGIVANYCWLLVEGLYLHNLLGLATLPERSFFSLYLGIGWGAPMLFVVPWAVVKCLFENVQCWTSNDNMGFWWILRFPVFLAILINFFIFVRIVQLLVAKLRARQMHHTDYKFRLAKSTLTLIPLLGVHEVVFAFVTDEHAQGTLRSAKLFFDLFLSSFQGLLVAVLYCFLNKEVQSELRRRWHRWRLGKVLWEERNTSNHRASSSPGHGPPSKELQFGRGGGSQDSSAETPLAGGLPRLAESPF
T1 sequence (P43220 24-463): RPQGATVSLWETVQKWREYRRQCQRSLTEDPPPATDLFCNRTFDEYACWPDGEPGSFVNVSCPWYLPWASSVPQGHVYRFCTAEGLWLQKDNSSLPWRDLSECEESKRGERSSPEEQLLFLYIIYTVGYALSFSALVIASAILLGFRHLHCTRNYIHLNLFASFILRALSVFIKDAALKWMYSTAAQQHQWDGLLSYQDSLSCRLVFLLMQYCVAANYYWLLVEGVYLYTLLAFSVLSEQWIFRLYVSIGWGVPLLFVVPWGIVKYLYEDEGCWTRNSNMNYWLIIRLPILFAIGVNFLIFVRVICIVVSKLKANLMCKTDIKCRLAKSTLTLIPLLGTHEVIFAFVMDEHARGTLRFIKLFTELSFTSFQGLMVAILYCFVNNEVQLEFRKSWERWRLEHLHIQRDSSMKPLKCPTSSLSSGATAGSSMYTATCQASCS

SMILES | EC50 [1, 4] [nM] | EC50 [2] [nM] | EC50 [1] [nM] | EC50 [3] [nM] | EC50 ([1]; HEK293-GLP-1R-CRE cells, luciferase readout, Table 8, read-out: GLP-1R (EC50)) [nM] | EC50 ([3]; HEK293-GIPR-CRE cells, luciferase readout, Table 8, read-out: GIP-R (EC50)) [nM]
CC[C@H](C)[C@H](NC(=O)[C@H](CC(N)=O)NC(=O)[C@H](CC(N)=O)NC(=O)[C@H](CCCNC(=N)N)NC(=O)[C@H](CC(N)=O)NC(=O)[C@H](CCCNC(=N)N)NC(=O)[C@H](CCCCN)NC(=O)[C@@H](NC(=O)[C@H](CC(N)=O)NC(=O)[C@H](CCSC)NC(=O)[C@H](CC(C)C)NC(=O)[C@H](Cc1c[nH]c2ccccc12)NC(=O)[C@@H]1CSCc2ccc(cc2)C(=O)c2ccc(cc2)CSC[C@H](NC(=O)[C@H](CCC(=O)O)NC(=O)[C@H](CC(=O)O)NC(=O)[C@H](CC(C)C)NC(=O)[C@H](Cc2ccc(O)cc2)NC(=O)[C@H](CCCCN)NC(=O)[C@H](CO)NC(=O)[C@H](Cc2ccc(O)cc2)NC(=O)[C@H](CC(=O)O)NC(=O)[C@H](CO)NC(=O)[C@@H](NC(=O)[C@H](Cc2ccccc2)NC(=O)[C@@H](NC(=O)CNC(=O)[C@H](CCC(N)=O)NC(=O)[C@@H](CO)NC(=O)[C@@H](N)Cc2c[nH]cn2)[C@@H](C)O)[C@@H](C)O)C(=O)N[C@@H](C)C(=O)N[C@@H](C)C(=O)N[C@@H](CCCCN)C(=O)N[C@@H](CCC(=O)O)C(=O)N[C@@H](Cc2ccccc2)C(=O)N[C@@H]([C@@H](C)CC)C(=O)N1)[C@@H](C)O)C(=O)N[C@@H](C)C(N)=O [mTA21] (H-H[dS]QGTFTSDYSKYLDECAAKEFICWLMNTKRNRNNIA-NH2; linker 17-24 via X1) | 0.12 | 0.7 | – | – | – | –
CC[C@H](C)[C@H](NC(=O)[C@H](CC(N)=O)NC(=O)[C@H](CC(N)=O)NC(=O)[C@H](CCCNC(=N)N)NC(=O)[C@H](CC(N)=O)NC(=O)[C@H](CCCNC(=N)N)NC(=O)[C@H](CCCCN)NC(=O)[C@@H](NC(=O)[C@H](CC(N)=O)NC(=O)[C@H](CCSC)NC(=O)[C@H](CC(C)C)NC(=O)[C@H](Cc1c[nH]c2ccccc12)NC(=O)[C@@H]1CSCC(=O)NCCNC(=O)CSC[C@H](NC(=O)[C@H](CCC(=O)O)NC(=O)[C@H](CC(=O)O)NC(=O)[C@H](CC(C)C)NC(=O)[C@H](Cc2ccc(O)cc2)NC(=O)[C@H](CCCCN)NC(=O)[C@H](CO)NC(=O)[C@H](Cc2ccc(O)cc2)NC(=O)[C@H](CC(=O)O)NC(=O)[C@H](CO)NC(=O)[C@@H](NC(=O)[C@H](Cc2ccccc2)NC(=O)[C@@H](NC(=O)CNC(=O)[C@H](CCC(N)=O)NC(=O)[C@@H](CO)NC(=O)[C@@H](N)Cc2c[nH]cn2)[C@@H](C)O)[C@@H](C)O)C(=O)N[C@@H](C)C(=O)N[C@@H](C)C(=O)N[C@@H](CCCCN)C(=O)N[C@@H](CCC(=O)O)C(=O)N[C@@H](Cc2ccccc2)C(=O)N[C@@H]([C@@H](C)CC)C(=O)N1)[C@@H](C)O)C(=O)N[C@@H](C)C(N)=O [mTA24] (H-H[dS]QGTFTSDYSKYLDECAAKEFICWLMNTKRNRNNIA-NH2; linker 17-24 via CH2CONHCH2CH2NHCOCH2) | 0.2 | 3 | – | – | – | –
CC[C@H](C)[C@@H]1NC(=O)[C@H](Cc2ccccc2)NC(=O)[C@H](CCC(=O)O)NC(=O)[C@H](CCCCN)NC(=O)[C@H](C)NC(=O)[C@H](C)NC(=O)[C@@H](NC(=O)[C@H](CCC(=O)O)NC(=O)[C@H](CC(=O)O)NC(=O)[C@H](CC(C)C)NC(=O)[C@H](Cc2ccc(O)cc2)NC(=O)[C@H](CCCCN)NC(=O)[C@H](CO)NC(=O)[C@H](Cc2ccc(O)cc2)NC(=O)[C@H](CC(=O)O)NC(=O)[C@H](CO)NC(=O)[C@@H](NC(=O)[C@H](Cc2ccccc2)NC(=O)[C@@H](NC(=O)CNC(=O)[C@H](CCC(N)=O)NC(=O)[C@@H](CO)NC(=O)[C@@H](N)Cc2c[nH]cn2)[C@@H](C)O)[C@@H](C)O)CSCC(=O)NCCCCNC(=O)CSC[C@@H](C(=O)N[C@@H](Cc2c[nH]c3ccccc23)C(=O)N[C@@H](CC(C)C)C(=O)N[C@@H](CC(C)C)C(=O)N[C@@H](CCCNC(=N)N)C(=O)N[C@@H](C)C(N)=O)NC1=O [mTA29] (H-H[dS]QGTFTSDYSKYLDECAAKEFICWLLRA-NH2; linker 17-24 via CH2CONH(CH2)4NHCOCH2) | 0.03 | 0.03 | – | – | – | –
CC[C@H](C)[C@H](NC(=O)[C@H](CO)NC(=O)[C@H](Cc1ccc(O)cc1)NC(=O)[C@H](CC(=O)O)NC(=O)[C@H](CO)NC(=O)[C@@H](NC(=O)[C@H](Cc1ccccc1)NC(=O)[C@@H](NC(=O)CNC(=O)[C@H](CCC(=O)O)NC(=O)[C@@H](C)NC(=O)[C@@H](N)Cc1ccc(O)cc1)[C@@H](C)O)[C@@H](C)O)C(=O)N[C@@H](Cc1ccc(O)cc1)C(=O)N[C@@H](CC(C)C)C(=O)N[C@@H](CC(=O)O)C(=O)N[C@@H](CCCCN)C(=O)N[C@H]1CSCC(=O)NCCCCNC(=O)CSC[C@@H](C(=O)N[C@@H](Cc2c[nH]c3ccccc23)C(=O)N[C@@H](CC(C)C)C(=O)N[C@@H](CC(C)C)C(=O)N[C@@H](C)C(=O)NCC(=O)NCC(=O)N2CCC[C@H]2C(=O)N[C@@H](CO)C(=O)N[C@@H](CO)C(=O)NCC(=O)N[C@@H](C)C(=O)N2CCC[C@H]2C(=O)N2CCC[C@H]2C(=O)N2CCC[C@H]2C(=O)N[C@@H](CO)C(=O)N[C@@H](CCCCN)C(N)=O)NC(=O)[C@H](C(C)C)NC(=O)[C@H](Cc2ccccc2)NC(=O)[C@H](CCC(=O)O)NC(=O)[C@H](CCCCN)NC(=O)[C@H](C)NC(=O)[C@H](C)NC1=O [mTA40] (H-Y[dA]EGTFTSDYSIYLDKCAAKEFVCWLLAGGPSSGAPPPSK-NH2; linker 17-24 via CH2CONH(CH2)4NHCOCH2) | – | – | 0.02 | 0.02 | – | –
CC[C@H](C)[C@H](NC(=O)[C@H](CC(N)=O)NC(=O)[C@H](CC(N)=O)NC(=O)[C@H](CCCNC(=N)N)NC(=O)[C@H](CC(N)=O)NC(=O)[C@H](CCCNC(=N)N)NC(=O)[C@H](CCCCN)NC(=O)[C@@H](NC(=O)[C@H](CC(N)=O)NC(=O)[C@H](CCSC)NC(=O)[C@H](CC(C)C)NC(=O)[C@H](Cc1c[nH]c2ccccc12)NC(=O)[C@@H]1CSCC(=O)NCCCCNC(=O)CSC[C@H](NC(=O)[C@H](CCC(=O)O)NC(=O)[C@H](CC(=O)O)NC(=O)[C@H](CC(C)C)NC(=O)[C@H](Cc2ccc(O)cc2)NC(=O)[C@H](CCCCN)NC(=O)[C@H](CO)NC(=O)[C@H](Cc2ccc(O)cc2)NC(=O)[C@H](CC(=O)O)NC(=O)[C@H](CO)NC(=O)[C@@H](NC(=O)[C@H](Cc2ccccc2)NC(=O)[C@@H](NC(=O)CNC(=O)[C@H](CCC(=O)O)NC(=O)[C@@H](C)NC(=O)[C@@H](N)Cc2ccc(O)cc2)[C@@H](C)O)[C@@H](C)CC)C(=O)N[C@@H](C)C(=O)N[C@@H](C)C(=O)N[C@@H](CCCCN)C(=O)N[C@@H](CCC(=O)O)C(=O)N[C@@H](Cc2ccccc2)C(=O)N[C@@H]([C@@H](C)CC)C(=O)N1)[C@@H](C)O)C(=O)N[C@@H](C)C(N)=O [mTA44] (H-Y[dA]EGTFISDYSKYLDECAAKEFICWLMNTKRNRNNIA-NH2; linker 17-24 via CH2CONH(CH2)4NHCOCH2) | – | 1.6 | – | – | 9.7 | 0.04
